Experimental data taken from ChEMBL document CHEMBL1145700, “Pyraxinine, a Novel Nitrogenous Compound from the Marine Sponge Cymbastela cantharella” (J Nat Prod, 1997).

Assay: Inhibition of LPS-induced macrophagic NOS at 100 uM

- inhibition: 50%
Structure (SMILES): N=C(N)Nc1cccnc1
